Data from patent publication US11673891B2, “Imidazopyrimidine compounds and uses thereof” (Dana-Farber Cancer Institute, Inc., priority 2017, dated 2023).

Tests used:
[1] = system: Human adult and elderly PBMCs; assay: Adult and elderly PBMCs stimulated with confirmed hit compounds, TNF and IL-1β by ELISA; type: cell-based; details: 18 hours, N=5
Method: (FIG. 2A) Human adult (top) and elderly (bottom) PBMCs stimulated for 18 hours with the TLR7/8 agonist R848 and 24 confirmed hit compounds from TNF AlphaLISA screen. TNF (left panels) and IL-1β (right panels) were assessed in cell-free supernatants by ELISA. Data are shown as median and interquartile range of N=5.
ELISAs and Multiplex-Analyte Assays. Supernatants derived from human PBMCs and DC stimulations were assayed by ELISA for TNF (ThermoFisher Scientific; Waltham, Mass., USA). Cytokine and chemokine expression profiles (e.g., IFNγ, IL-9, IL-10, IL-12 (p70), IL-13, IL-1β, IL-23, IL-27, IL-28A, IL-33, IL-6, MIP-3α/CCL20, and TNF) in cell culture supernatants were measured using a customized Milliplex® Human Th17 Magnetic Bead Panel according to the manufacturer's instructions (Millipore, Chicago, Ill., USA). Assays were read and analyzed on the Luminex® 100/200™ System and xPOTENT® software (Luminex, Austin, Tex.). A minimum threshold was set at the minimum detectable concentration for each individual assay, defined as three standard deviations above the mean background.

[2] = system: PBMCs; assay: TNF AlphaLISA screen on primary human PBMCs; type: cell-based; details: robust Z score >2 in both duplicates and at least 2 of 3 donors
Method: TNF AlphaLISA screen was comprised of three parts: 1) human peripheral blood collection and PBMC isolation—human adult peripheral blood was collected with written consent. PBMCs were isolated from the blood using Ficoll density gradient. PBMCs were stored at 50 million cells per vial in 1 ml RPMI containing 20% autologous plasma and 10% DMSO at −80° C. until use; 2) TNFαLISA Assay—On Day 1, PBMCs were thawed in 37° C. water bath for 3 min and washed twice with PBS. Trypan blue viable cell count was obtained and cells were resuspended to viable 6.67×10^5 cells/ml in DMEM with 10% autologous plasma. Cells were dispensed in 30 μl per well in Corning 2712 black 384-well cell culture plates (final concentration was 20,000 cells/well). Controls were added to cells manually and the test compounds were added by robotic pin transfer. Plates were then incubated at 37° C./5% CO2 humidity-controlled incubator for 18 hours. On Day 2 of the assay, plates were centrifuged and 2 μl supernatants were collected into Perkin Elmer Alpha plates. Perkin Elmer Human TNFα kits (cat #AL208F) were used to detect the presence of TNFα in supernatants.
TNFαLISA Assay. Human adult peripheral blood was collected according to approved protocols. […] Viability was assessed by trypan blue staining and cells were then resuspended to 6.67×10^5 viable cells/mL in DMEM with 10% autologous plasma. […]

[3] = system: THP1-Lucia cells; assay: NF-kB-induced luminescence assay in THP1-Lucia cells; type: cell-based, human; details: in comparison to positive control R848, N=4
Method: THP-1 Cell Line and Culture Conditions. The THP1-Lucia™ cell line was obtained from Invivogen (San Diego, Calif.). THP1-Lucia cells, which are human monocytic cells derived from the blood of a child with leukemia, contain an NF-kB-inducible Luc reporter construct. This allows NF-kB activation to be measured by quantifying the luminescence from the secreted luciferase enzyme. THP1-Lucia cells were cultured in RPMI 1640 supplemented with 10% non-heat inactivated fetal bovine serum (FBS), 10 mM HEPES, 1.0 mM sodium pyruvate, 50 ug/ml Pen-Strep, and 100 ug/mL Normocin™. Once cultured, the cells were stored in a 37° C. incubator with 5% CO2 and a humidified atmosphere. Cells were passaged every 2-3 days and not allowed to exceed a concentration of 2.0×10^6 cells/ml media.
NF-kB-induced Luminescence Assay. THP1-Lucia cells between passage 15 and 18 and suspended in culture medium were dispensed into 384-well black clear-bottom plates (Corning 3712) at 30,000 cells/30 μl/well using a Combi liquid dispenser. […] Immediately after adding the substrate, the luminescence was read using a PerkinElmer Envision plate reader.

Structure (SMILES): CCC(C(=O)Nc1cc(-c2cn3cccnc3n2)ccc1C)c1ccccc1 (stereo not drawn) [Compound 37]
- TNF and IL-1β induction from adult and elderly PBMCs (in words) [1]: induce TNF and IL-1β from adult and elderly PBMCs
- Hit in PBMC TNFαLISA screen (in words) [2]: identified in the PBMC TNFαLISA screen
- NF-κB-driven expression of luciferase in THP1 cells (in words) [3]: does not substantially activate THP1 cells
